What all share (test): inhibition of tumour cell growth, NCI panel, 48 h
The test system of assay [1] is MDA-N.
Assay [2] has as its system IGROV1 ovarian.
The test system of assay [3] is SR leukemia.
Assay [4] concerns CCRF-CEM leukemia.
Assay [5] concerns SK-MEL-28 melanoma.
In assay [6] the test system is DU-145 prostate.
The subject of assay [7] is HT29 colon.
The subject of assay [8] is MDA-MB-231 breast.
In assay [9] the test system is CAKI-1 renal.

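96-well plates; 48 h exposure; 5 concentrations. Endpoints by linear interpolation between flanking doses. Not reached: highest tested concentration assigned. TGI: total growth inhibition.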

Regarding `CCOC(=O)c1csc(NC(=O)CCN2CCCC2)n1`, the TGI in assay [1], in [2], in assay [3], in assay [4], in assay [5] and in assay [6] was greater than 100 µM in each case. The TGI in [7], in assay [8] and in [9] was greater than 100 µM throughout.
In the case of `Cc1cccc2c1CC(Cc1ccccc1C(=O)O)C2=O` (centres undefined), the TGI in assay [1], in assay [2], in assay [3], in assay [4], in [5] and in assay [6] was greater than 100 µM each time. Moreover, the TGI in [7], in [8] and in assay [9] was greater than 100 µM in each case.
Consider `CCOC(=O)[C@@H](Cc1ccc(CCl)cc1)NC(C)=O`, for which the TGI in assay [1] was 40.2 µM; in [2], 51.2 µM; in [3], greater than 100 µM; in assay [4], greater than 100 µM; in [5], 86.2 µM; in assay [6] it was greater than 100 µM. Besides, the TGI in [7] is greater than 100 µM; in assay [8], 81.6 µM; in [9] it was 68.6 µM.
Turning to `C[C@H]1[C@H](C)CC[C@]2(C(=O)OC3OC(CO)C(O)C(O)C3O)CC[C@]3(C)C(=CC[C@@H]4[C@@]5(C)C[C@@H](O)[C@@H]6OC(=O)c7cc(O)c(O)c(O)c7-c7c(cc(O)c(O)c7O)C(=O)OC[C@@]6(CO)[C@@H]5CC[C@]43C)[C@H]12` (some centres undefined), the TGI in assay [1] was 51.4 µM; in assay [2], greater than 100 µM; in [3] it was greater than 100 µM; in [4], 98.7 µM; in assay [5] it was greater than 100 µM; in [6] it was greater than 100 µM. In addition, the TGI in assay [7] was greater than 57.9 µM; in assay [8], 37 µM; in assay [9], greater than 100 µM.
Consider `O=C(c1ccc([N+](=O)[O-])cc1)N1CCCC1`, for which the TGI in assay [1], in [2], in [3], in assay [4], in assay [5] and in [6] was greater than 100 µM throughout. For the same compound, the TGI in assay [7], in assay [8] and in assay [9] was greater than 100 µM throughout.
In the case of `CCOC(=O)c1csc(NC(=O)CCN2CCN(C)CC2)n1`, the TGI in assay [1], in assay [3], in [4], in assay [5], in assay [6] and in [7] was greater than 100 µM each time. For the same compound, the TGI in assay [8] and in assay [9] was greater than 100 µM each time.
Turning to `O=C1c2cc3c(cc2CC12Cc1ccc4c(c1C2=O)CCC4)CCC3` (centres undefined), the TGI in assay [1], in assay [2], in [3], in assay [4], in assay [5] and in assay [6] was greater than 100 µM in each case. The TGI in assay [7], in assay [8] and in [9] was greater than 100 µM each time.
On to `Cc1cc(S(=O)(=O)N=C2Nc3cccc4cccc(c34)N2)c(S)cc1Cl`, for which the TGI in assay [1], in assay [2], in assay [3], in assay [4], in assay [5] and in [6] was greater than 100 µM each time. Further, the TGI in [8] and in assay [9] was greater than 100 µM each time.
Take `CCc1nc2c(c(N(C)C)c1C(=O)OC)CCc1ccccc1-2`: the TGI in assay [1] was 81.5 µM; in [2], greater than 100 µM; in assay [3], 32.9 µM; in assay [4], 9.43 µM; in [5], greater than 100 µM; in assay [6], 40.9 µM. Besides, the TGI in assay [7] is greater than 100 µM; in assay [8], 87.8 µM; in assay [9], greater than 100 µM.
Take `COC1(CC[C@H](C)COC2OC(CO)C(O)C(O)C2O)O[C@H]2C[C@H]3[C@@H]4CC=C5C[C@@H](OC6OC(CO)C(OC7OC(C)C(O)C(O)C7O)C(O)C6OC6OC(C)C(O)C(O)C6O)CC[C@]5(C)[C@H]4CC[C@]3(C)[C@H]2[C@@H]1C` (some centres undefined): the TGI in assay [1] was 9.57 µM; in assay [2] it was 20.1 µM; in [3], greater than 100 µM; in assay [4], greater than 37.1 µM; in assay [5], 15.8 µM; in assay [6] it was 5.77 µM. The TGI in assay [7] was found to be 6.8 µM; in assay [8] it was 21.1 µM; in assay [9], 3.26 µM.
For the compound `CCOC(=O)/C=C/CCC(C)(C)COC(C)=O`, the TGI in [1], in assay [2], in [3], in assay [4], in [5] and in assay [6] was greater than 10 µM throughout. Besides, the TGI in assay [7], in assay [8] and in [9] was greater than 10 µM each time.
Take `O=c1c2c3c(sc2nc2n1N=C(c1ccc(Br)cc1)CS2)CCCC3`: the TGI in assay [1], in [2], in assay [3], in assay [4], in [5] and in assay [6] was greater than 100 µM in each case. For the same compound, the TGI in assay [7], in assay [8] and in assay [9] was greater than 100 µM each time.
For the compound `CC(C)=CCc1c(O)cc2oc(-c3ccc(O)cc3O)cc(=O)c2c1O`, the TGI in assay [1] was 72.3 µM; in [2], greater than 100 µM; in [3] it was greater than 65.6 µM; in assay [4] it was 28.2 µM; in [5], 87.8 µM; in assay [6], greater than 84.8 µM. The TGI in assay [7] was 49.8 µM; in assay [8], 67.2 µM; in assay [9], greater than 81.4 µM.
For `CC(=O)/C(=N\Nc1ccc(Cl)cc1)C(C)=Nc1ccc(C)cc1`, the TGI was greater than 100 µM in assay [1]; greater than 100 µM in [2]; greater than 100 µM in assay [3]; 37.7 µM in [4]; greater than 100 µM in [5]; greater than 100 µM in assay [6]. The figures for the TGI in assay [7], in assay [8] and in assay [9] were 61.3 µM, greater than 100 µM and greater than 100 µM, respectively.
